Laboratory results reported in US20140155406A1, “4-IMIDAZOPYRIDAZIN-1-YL-BENZAMIDES AND 4-IMIDAZOTRIAZIN-1-YL-BENZAMIDES BTK INHIBITORS” (priority 2011, published 2014).

Tests used:
Format in all cases: biochemical
FynT enzyme = target: T1, FynT enzyme (Homo sapiens, UniProt P06241); assay: FynT enzyme activity, IMAP fluorescence polarization assay; conditions: 60 min pre-incubation, 0.2 μM ATP (Km)
T1 construct: purchased Biomol SE-287
Method: FynT enzyme activity is measured using the IMAP (immobilized metal ion affinity-based fluorescence polarization) assay as outlined below.
FynT enzyme (Biomol catalog# SE-287), is diluted to 0.5 μg/mL in KR buffer (10 mM Tris-HCl, 10 mM MgCl2, 0.01% Tween-20, 0.05% NaN3, 1 mM DTT, 2 mM MnCl2, pH 7.2). Serial dilution log 10 from 2 mM to 63.2 nM of test compounds are made in 100% DMSO. The dilutions in DMSO are then diluted 50-fold in KR-buffer of which 5 μl is used in the assay, leading to a final compound concentration range in the assay from 10 μM to 0.316 nM. 5 μL/well of test compound in KR buffer (final DMSO concentration in the assay is 1%) is mixed with 5 μl/well of 0.5 μg/mL FynT enzyme (final concentration in the assay is 125 ng/mL). Test compounds and FynT enzyme are pre-incubated 60 minutes at room temperature, before adding 5 μL/well of 400 nM Fluorescin labeled substrate peptide (p34cdc2 substrate peptide, e.g. #R7157/#R7172, Molecular Devices) in KR-buffer. Final peptide substrate concentration in assay is 100 nM. The kinase assay is started by adding 5 μL/well of 0.8 μM ATP in KR-buffer (final ATP concentration is 0.2 μM ATP, Km ATP in FynT IMAP assay). Following incubation for 2 h at room temperature the enzyme reaction is stopped by adding 40 μL/well IMAP Progressive Binding Solution (according to suppliers (Molecular Devices) protocol using 75% 1× buffer A and 25% 1× buffer B with 1:600 Progressive Binding Solution). After 60 min incubation at room temperature in the dark the FP signal is read. Fluorescence at 535 nm is measured using parallel and perpendicular filters to determine differences in rotation due to binding of the phosphorylated substrate peptide to the beads. Values are calculated as percentage of the difference in readout (ΔmPi) of the controls with and without ATP. EC50 values are determined by curve fitting of the experimental results using Activity Base.

Lyn enzyme = target: T2, Lyn enzyme (Homo sapiens, UniProt P07948); assay: Lyn enzyme activity, IMAP fluorescence polarization assay; conditions: 60 min pre-incubation, 2 μM ATP (Km)
T2 construct: purchased Millipore 14-510
Method: Lyn enzyme activity is measured using the IMAP (immobilized metal ion affinity-based fluorescence polarization) assay as outlined below.
Lyn enzyme (Millipore catalog#14-510), is diluted to 250 mU/mL in KR buffer (10 mM Tris-HCl, 10 mM MgCl2, 0.01% Tween-20, 0.05% NaN3, 1 mM DTT, 2 mM MnCl2, pH 7.2). Serial dilution log 10 from 2 mM to 63.2 nM of test compounds are made in 100% DMSO. The dilutions in DMSO are then diluted 50-fold in KR-buffer of which 5 μl is used in the assay, leading to a final compound concentration range in the assay from 10 μM to 0.316 nM. 5 μL/well of test compound in KR buffer (final DMSO concentration in the assay is 1%) is mixed with 5 μl/well of 250 mU/mL Lyn enzyme (final concentration in the assay is 62.5 mU/mL). Test compounds and Lyn enzyme are pre-incubated 60 minutes at room temperature, before adding 5 μL/well of 400 nM Fluorescin labeled substrate peptide (Blk/Lyntide substrate, e.g. #R7188/#R7233, Molecular Devices) in KR-buffer. Final peptide substrate concentration in assay is 100 nM. The kinase assay is started by adding 5 μL/well of 8 μM ATP in KR-buffer (final ATP concentration is 2 μM ATP, Km ATP in Lyn IMAP assay). Following incubation for 2 h at room temperature the enzyme reaction is stopped by adding 40 μL/well IMAP Progressive Binding Solution (according to suppliers (Molecular Devices) protocol using 75% 1× buffer A and 25% 1× buffer B with 1:600 Progressive Binding Solution). After 60 min incubation at room temperature in the dark the FP signal is read. Fluorescence at 535 nm is measured using parallel and perpendicular filters to determine differences in rotation due to binding of the phosphorylated substrate peptide to the beads. Values are calculated as percentage of the difference in readout (ΔmPi) of the controls with and without ATP. EC50 values are determined by curve fitting of the experimental results using Activity Base.

Lck enzyme = target: T3, Lck enzyme (Homo sapiens, UniProt P06239); assay: Lck enzyme activity, IMAP fluorescence polarization assay; conditions: 60 min pre-incubation, 6 μM ATP (Km)
T3 construct: purchased Millipore 14-442
Method: Lck enzyme activity is measured using the IMAP (immobilized metal ion affinity-based fluorescence polarization) assay as outlined below.
Lck enzyme (Millipore catalog#14-442), is diluted to 0.4 U/mL in KR buffer (10 mM Tris-HCl, 10 mM MgCl2, 0.01% Tween-20, 0.05% NaN3, 1 mM DTT, 2 mM MnCl2, pH 7.2). Serial dilution log 10 from 2 mM to 63.2 nM of test compounds are made in 100% DMSO. The dilutions in DMSO are then diluted 50-fold in KR-buffer of which 5 μl is used in the assay, leading to a final compound concentration range in the assay from 10 μM to 0.316 nM. 5 μL/well of test compound in KR buffer (final DMSO concentration in the assay is 1%) is mixed with 5 μl/well of 0.4 U/mL Lck enzyme (final concentration in the assay is 0.1 U/mL). Test compounds and Lck enzyme are pre-incubated 60 minutes at room temperature, before adding 5 μL/well of 400 nM Fluorescin labeled substrate peptide (p34cdc2 substrate peptide, e.g. #R7157/#R7172, Molecular Devices) in KR-buffer. Final peptide substrate concentration in assay is 100 nM. The kinase assay is started by adding 5 μL/well of 24 μM ATP in KR-buffer (final ATP concentration is 6 μM ATP, Km ATP in Lck IMAP assay). Following incubation for 2 h at room temperature the enzyme reaction is stopped by adding 40 μL/well IMAP Progressive Binding Solution (according to suppliers (Molecular Devices) protocol using 75% 1× buffer A and 25% 1× buffer B with 1:600 Progressive Binding Solution). After 60 min incubation at room temperature in the dark the FP signal is read. Fluorescence at 535 nm is measured using parallel and perpendicular filters to determine differences in rotation due to binding of the phosphorylated substrate peptide to the beads. Values are calculated as percentage of the difference in readout (ΔmPi) of the controls with and without ATP. EC50 values are determined by curve fitting of the experimental results using Activity Base.

Src enzyme = target: T4, Src enzyme (Homo sapiens, UniProt P12931); assay: Src enzyme activity, IMAP fluorescence polarization assay; conditions: 60 min pre-incubation, 4 μM ATP (Km)
T4 construct: purchased Millipore 14-326
Method: Src enzyme activity is measured using the IMAP (immobilized metal ion affinity-based fluorescence polarization) assay as outlined below.
Src enzyme (Millipore catalog#14-326), is diluted to 0.8 U/mL in KR buffer (10 mM Tris-HCl, 10 mM MgCl2, 0.01% Tween-20, 0.05% NaN3, 1 mM DTT, 2 mM MnCl2, pH 7.2).
Serial dilution log 10 from 2 mM to 63.2 nM of test compounds are made in 100% DMSO. The dilutions in DMSO are then diluted 50-fold in KR-buffer of which 5 μl is used in the assay, leading to a final compound concentration range in the assay from 10 μM to 0.316 nM. 5 μL/well of test compound in KR buffer (final DMSO concentration in the assay is 1%) is mixed with 5 μl/well of 0.8 U/mL Src enzyme (final concentration in the assay is 0.2 U/mL). Test compounds and Src enzyme are pre-incubated 60 minutes at room temperature, before adding 5 μL/well of 400 nM Fluorescin labeled substrate peptide (p34cdc2 substrate peptide, e.g. #R7157/#R7172, Molecular Devices) in KR-buffer. Final peptide substrate concentration in assay is 100 nM. The kinase assay is started by adding 5 μL/well of 16 μM ATP in KR-buffer (final ATP concentration is 4 μM ATP, Km ATP in Src IMAP assay). Following incubation for 2 h at room temperature the enzyme reaction is stopped by adding 40 μL/well IMAP Progressive Binding Solution (according to suppliers (Molecular Devices) protocol using 75% 1× buffer A and 25% 1× buffer B with 1:600 Progressive Binding Solution). After 60 min incubation at room temperature in the dark the FP signal is read. Fluorescence at 535 nm is measured using parallel and perpendicular filters to determine differences in rotation due to binding of the phosphorylated substrate peptide to the beads. Values are calculated as percentage of the difference in readout (ΔmPi) of the controls with and without ATP. EC50 values are determined by curve fitting of the experimental results using Activity Base.

T3 sequence (P06239 whole entry): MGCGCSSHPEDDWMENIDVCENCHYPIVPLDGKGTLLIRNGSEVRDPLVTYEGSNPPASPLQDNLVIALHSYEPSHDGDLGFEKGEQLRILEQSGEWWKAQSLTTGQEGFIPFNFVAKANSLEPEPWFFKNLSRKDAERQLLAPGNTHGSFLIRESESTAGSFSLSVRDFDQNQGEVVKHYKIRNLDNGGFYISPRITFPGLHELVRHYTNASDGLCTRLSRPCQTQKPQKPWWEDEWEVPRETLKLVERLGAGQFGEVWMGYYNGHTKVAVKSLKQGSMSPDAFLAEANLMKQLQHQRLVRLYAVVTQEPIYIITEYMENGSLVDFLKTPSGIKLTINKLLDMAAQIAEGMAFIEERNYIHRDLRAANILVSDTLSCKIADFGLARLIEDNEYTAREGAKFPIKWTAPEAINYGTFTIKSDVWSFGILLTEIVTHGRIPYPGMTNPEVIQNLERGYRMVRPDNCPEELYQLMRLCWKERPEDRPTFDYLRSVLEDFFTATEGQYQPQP
T1 sequence (P06241 1-534 isoform P06241-2): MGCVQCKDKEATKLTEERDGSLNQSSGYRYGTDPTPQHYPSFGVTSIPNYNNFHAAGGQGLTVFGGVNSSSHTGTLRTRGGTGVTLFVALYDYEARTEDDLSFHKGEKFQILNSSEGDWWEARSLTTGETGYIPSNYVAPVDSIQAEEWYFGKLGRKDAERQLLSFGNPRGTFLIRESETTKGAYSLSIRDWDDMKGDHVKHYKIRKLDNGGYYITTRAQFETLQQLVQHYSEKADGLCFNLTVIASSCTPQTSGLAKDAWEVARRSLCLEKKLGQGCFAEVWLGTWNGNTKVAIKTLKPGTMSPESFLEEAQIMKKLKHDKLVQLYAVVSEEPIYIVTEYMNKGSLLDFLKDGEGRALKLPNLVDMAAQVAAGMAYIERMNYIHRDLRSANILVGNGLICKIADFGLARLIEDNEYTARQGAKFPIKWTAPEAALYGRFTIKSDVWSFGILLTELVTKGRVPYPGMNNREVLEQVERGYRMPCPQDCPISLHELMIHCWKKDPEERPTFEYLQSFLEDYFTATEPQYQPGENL
T4 sequence (P12931 whole entry): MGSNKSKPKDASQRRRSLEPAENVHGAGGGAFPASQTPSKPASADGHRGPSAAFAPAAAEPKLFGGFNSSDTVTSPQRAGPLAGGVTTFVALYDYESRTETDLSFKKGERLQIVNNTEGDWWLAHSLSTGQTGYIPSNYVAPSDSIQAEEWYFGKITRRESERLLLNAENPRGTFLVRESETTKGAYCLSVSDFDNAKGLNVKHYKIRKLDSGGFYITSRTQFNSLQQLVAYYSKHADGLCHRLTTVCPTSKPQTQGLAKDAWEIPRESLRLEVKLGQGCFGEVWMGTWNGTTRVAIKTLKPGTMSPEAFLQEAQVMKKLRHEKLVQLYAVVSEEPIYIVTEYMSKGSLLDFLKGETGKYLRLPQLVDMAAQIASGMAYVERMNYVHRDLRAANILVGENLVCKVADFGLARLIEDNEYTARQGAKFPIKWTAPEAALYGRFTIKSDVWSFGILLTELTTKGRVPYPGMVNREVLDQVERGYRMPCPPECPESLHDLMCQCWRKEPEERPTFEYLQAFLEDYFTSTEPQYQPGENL
T2 sequence (P07948 whole entry): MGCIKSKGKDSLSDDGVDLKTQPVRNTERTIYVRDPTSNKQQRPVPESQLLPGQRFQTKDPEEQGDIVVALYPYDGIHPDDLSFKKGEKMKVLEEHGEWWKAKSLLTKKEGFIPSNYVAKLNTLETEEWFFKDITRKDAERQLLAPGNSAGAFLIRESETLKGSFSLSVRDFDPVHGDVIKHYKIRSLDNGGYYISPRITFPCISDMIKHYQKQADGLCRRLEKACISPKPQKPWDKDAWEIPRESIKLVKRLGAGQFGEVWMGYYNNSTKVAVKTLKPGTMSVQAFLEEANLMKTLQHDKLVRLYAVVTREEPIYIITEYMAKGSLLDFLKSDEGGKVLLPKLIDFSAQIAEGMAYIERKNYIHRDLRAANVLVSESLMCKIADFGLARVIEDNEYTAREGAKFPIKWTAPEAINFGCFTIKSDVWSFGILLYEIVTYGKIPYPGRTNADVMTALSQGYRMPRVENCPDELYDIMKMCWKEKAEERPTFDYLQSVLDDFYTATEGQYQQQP

EC50 (FynT enzyme) [nM] | EC50 (Lyn enzyme) [nM] | EC50 (Lck enzyme) [nM] | EC50 (Src enzyme) [nM] | SMILES
≥ 1000 | ≥ 1000 | ≥ 1000 | ≥ 1000 | Cc1nccn2c([C@@H]3CCCN3C(=O)/C=C/CN(C)C)nc(-c3ccc(C(=O)Nc4ccccn4)cc3)c12 [Example 31, (S,E)-4-(3-(1-(4-(dimethylamino)but-2-enoyl)pyrrolidin-2-yl)-8-methylimidazo[1,5-a]pyrazin-1-yl)-N-(pyridin-2-yl)benzamide]
≥ 1000 | ≥ 1000 | ≥ 1000 | ≥ 1000 | CCCc1ccnc(NC(=O)c2ccc(-c3nc([C@@H]4CCCCN4C(=O)/C=C/COC)n4ccnc(C)c34)cc2)c1 [Example 34, (S,E)-4-(3-(1-(4-methoxybut-2-enoyl)piperidin-2-yl)-8-methylimidazo[1,5-a]pyrazin-1-yl)-N-(4-propylpyridin-2-yl)benzamide]

Continued, molecule first:

SMILES | EC50 (FynT enzyme) [nM] | EC50 (Lyn enzyme) [nM] | EC50 (Lck enzyme) [nM] | EC50 (Src enzyme) [nM]
CC#CC(=O)N1CCC[C@H]1c1nc(-c2ccc(C(=O)Nc3cc(C#N)ccn3)cc2)c2c(C)nccn12 [Example 32, (S)-4-(3-(1-but-2-ynoylpyrrolidin-2-yl)-8-methylimidazo[1,5-a]pyrazin-1-yl)-N-(4-cyanopyridin-2-yl)benzamide] | ≥ 1000 | ≥ 1000 | ≥ 1000 | ≥ 1000
CC#CC(=O)N1CCC[C@H]1c1nc(-c2ccc(C(=O)Nc3cc(CCC)ccn3)cc2)c2c(C)nccn12 [Example 33, (S)-4-(3-(1-but-2-ynoylpyrrolidin-2-yl)-8-methylimidazo[1,5-a]pyrazin-1-yl)-N-(4-propylpyridin-2-yl)benzamide] | ≥ 1000 | ≥ 1000 | ≥ 1000 | ≥ 1000
CCCc1ccnc(NC(=O)c2ccc(-c3nc([C@H](C)N(C)C(=O)/C=C/COC)n4ccnc(C)c34)cc2)c1 [Example 39, (S,E)-4-(3-(1-(4-methoxy-N-methylbut-2-enamido)ethyl)-8-methylimidazo[1,5-a]pyrazin-1-yl)-N-(4-propylpyridin-2-yl)benzamide] | ≥ 1000 | ≥ 1000 | ≥ 1000 | ≥ 1000
